Assay results: patent US20120251482A1, “USE FOR IMPROVING 5-HT FUNCTION AND ENOS EXPRESSION OF KMUPS AMINE SALTS” (KAOHSIUNG MEDICAL UNIVERSITY, priority 2011, published 2012)
Where a name gives a salt, the structure may show the parent alone.

What was measured:
ERK1/2 = test: 5-HT-induced phosphorylation of ERK1/2 in PASMCs; assay type: cell-based, rat
Description: (§1) Wistar rats were anesthetized with an overdose of sodium pentobarbital (60 mg/kg) and the skin was sterilized with 75% alcohol. The chest was opened and the heart and lung were removed. The organs were rinsed several times in PBS. The pulmonary arterys (PAs) were segregated in a sterile manner. The outer sphere was peeled and the microtubule was snipped visually, and endothecia were shaved lightly 2-3 times in order to remove endothelial cells. The tunica media was prepared into scraps (1 mm^3) in DMEM (Dulbecco's modified Eagle's medium). PASMCs were cultured in DMEM containing 10% fetal bovine serum (5% CO2 at 37° C.). The culture medium was changed every 3 days and cells were subcultured until confluence. Primary cultures of 2-4 passages were used in the experiments. Cells were examined by immunofluorescence staining of α-actin to confirm the purity of PASMCs.
(§2) PASMCs were stimulated with 5-HT or not, as indicated. Cells were treated with KMUP-1 for 24 h before 5-HT stimulation. […]
(§3) The expression of RhoA/ROCK and phosphorylation of ERK1/2 and AKT kinase in PASMCs were assessed by incubating the PASMCs with 5-HT (10 μM) for 15 min (peak time for RhoA/ROCK, ERK1/2 and AKT phosphorylation) and 5-HTT for 10 min (peak time for 5-HTT) after KMUP-1 (1-100 μM) was added to the culture of PASMCs for 24 h.

AKT = test: 5-HT-induced phosphorylation of AKT in PASMCs; assay type: cell-based, rat
Description: as §1, §2, §3

eNOS = test: Expression of eNOS in HPAEC (Western blotting); assay type: cell-based, human
Description: (§4) HPAEC purchased from ATCC were maintained in humidified incubator containing 5% CO2 at 37° C. HPAEC were cultured in F-12 supplemented with 10% fetal bovine serum. The culture medium was changed every 3 days and cells were subcultured until confluence. HPAEC were harvested with a solution of trypsin-EDTA (GIBCO BRL, NY, USA) while in a logarithmic phase of growth. HPAEC were used between passages 4-8.
PASMCs were stimulated with 5-HT or not, as indicated. Cells were treated with KMUP-1 for 24 h before 5-HT stimulation. Whole lysates were collected and resolved by SDS-PAGE as previously described (Liu et al., 2004). Primary antibodies were anti-β-actin at: 1:10,000 dilution and anti-RhoA, anti-ROCK, antiphospho-ERK1/2, anti-ERK1/2, anti-phospho-AKT, anti-AKT, anti-5HTT, anti-5-HT2B and anti-eNOS at 1:1000. All blots were incubated with antibodies at 4° C. overnight. After being washed, the appropriate secondary antibodies were added at a dilution of 1:1000 for 1 h at room temperature. After extensive washing, blots were developed with a Super Signal enhanced chemiluminescence kit (Biorad, CA, USA) and visualized on Kodak AR film.
To measure the expression of eNOS and 5-HT2B receptor in HPAEC after incubation with KMUP-1(1-100 μM) for 24 h, whole lysates were collected for Western blotting assay. The relative density was determined using NIH imaging software.

[1] = system: human pulmonary artery endothelial cell (HPAEC); test: Nitric oxide production in HPAEC (Griess method); assay type: cell-based; details: 5-HT 10 μM for 30 min
Description: as §4
Production of NO in HPAEC was determined using the Griess method (Niwano et al., 2003). The three step Greiss test converts nitrate (NO3^−) into nitrite (NO2^−) giving a total NO2^− concentration from a standard calibration curve. HPAEC were incubated with or without KMUP-1 (10 μM) for 24 h and then incubated with 5-HT (10 μmol/L) for 30 min. Media samples from HPAEC were taken and the NO concentration was determined. Six independent experiments were carried out and data are reported as the mean mean±SEM.

[2] = system: monocrotaline (MCT)-induced pulmonary artery hypertension rats; test: Mean pulmonary arterial pressure in MCT-induced PAH rats; assay type: in vivo, rat; details: MCT-treated rats, daily treatment for 21 days, n = 5
rat pulmonary artery = test: Isometric force of 5-HT-constricted pulmonary artery rings
Description: Wistar rats were euthanized with an overdose of sodium pentobarbital (60 mg/kg, i.p.) before open-chest surgery. During surgery, a thoracic retractor was used to help isolate the pulmonary artery. The chest was opened to dissect the second branches of the main pulmonary artery, which were cut into 2-3 mm rings, suspended under isometric conditions and connected to a force transducer as previously described (Ugo Basile, Model 7004, Comerio-VA, Italy) (Schach et al., 2007) to measure the constriction caused by 5-HT (10 μM). The pulmonary artery ring preparations were stretched to a basal tension of 1 g and allowed to equilibrate for 60-90 min. After equilibration, pulmonary artery rings were constricted with 5-HT (10 μM) to prime the tissues and check the functionality of the endothelium (at least 80% relaxation in response to acetylcholine 1 μM). Once the contractile response to each agonist reached a stable tension, KMUP-1 (0.1-100 μM) was cumulatively added to the organ bath in the presence of 5-HT (10 μM, pre-incubation time of 15 min).
The effect of KMUP-1 on NOS and 5-HT was also studied in vessels pre-incubated with the NOS inhibitor L-NAME (100 μM) 20 min before 5-HT administration. The percentage of relaxation was estimated using the following equation: relaxation (%)=(maximal contraction—relaxation level)/(maximal contraction-basal level)×100. Data was obtained from serotonin-induced maximal contractile responses in pulmonary artery.

[3] = system: pulmonary arterial smooth muscle cells (PASMCs); test: PASMCs [Ca2+]i measurement (Fura-2/AM); assay type: cell-based, rat; details: at 10 μM; 5-HT 10 μM
Description: as §1
The measurement of [Ca^2+]i in PASMCs was performed using a spectrofluorophotometer as previously reported (Wang et al., 2004). PASMCs, cultured for 2-4 passages and re-suspended by trypsin, were loaded with Fura-2/AM for the measurement of [Ca^2+]i changes in cells within the cuvette by spectrofluorophotometer (Shimadzu, RF-5301PC, Shimadzu, Japan). KMUP-1 was applied 5 min before application of 5-HT (10 μM).

5-HTT = test: Pulmonary 5-HTT expression in MCT-treated rats (immunochemistry, Western blotting); assay type: in vivo, rat
Description: All experiments were performed in adult male Wistar rats (300 to 350 g) in accordance with institutional guidelines after approval by the ethical review committee. PAH development and pulmonary expression of 5-HTT were examined in rats after single injection of MCT (60 mg/kg i.p.). To assess the potential preventive effect of KMUP-1 on MCT-induced PAH and associated proliferation, we assigned rats at random to 2 groups of 8 animals which received KMUP-1 at 5 mg/kg/day p.o or 1 mg/kg/day i.p. All treatments were given once a day for 3 weeks after a single MCT injection (60 mg/kg i.p.) (Abe et al., 2004). On day 21, rats were anesthetized and pulmonary artery blood pressure (MPAP) was recorded as previously described (Chung et al., 2010). Lung tissues were dissected for Western blotting and immunohistochemistry.
For 5-HTT immunostaining, the lung slides were dewaxed in 100% xylene, and the sections were then rehydrated by successive immersion first in decreasing ethanol concentrations (100%, 90%, 80%, 50% and 30%) and then in water. Endogenous peroxidase activity was blocked using H2O2 in methanol (0.3% vol/vol) for 10 min. After three PBS washes, sections were pre-incubated in PBS supplemented with 3% (wt/vol) BSA for 30 min, then incubated overnight at 4° C. with goat polyclonal anti-5-HTT antibody (Abcam Biotechnology, Cambridge, UK) diluted to 1:1000 in 1×PBS, 0.02% BSA. […]

RhoA = test: 5-HT-induced RhoA translocation in PASMCs; assay type: cell-based, rat; details: 1-100 μM, 24 h; 5-HT 10 μM 15 min
Description: as §1, with “Cells were examined by immunofluorescence staining of α-actin to confirm the purity of PASMCs.” left out
Previous reports have shown that the active form of RhoA is translocated from the cytosol to the plasma membrane, where it activates Rho kinase (Gong et al., 1997)). […] To assess membrane trans-location of RhoA, protein in membrane and cytosolic fractions was determined by standard Western blot analysis using mouse monoclonal anti-RhoA antibody (1:1000 dilution, Santa Cruz Biotechnology) and a peroxidase-labeled anti-mouse immunoglobulin (Ig) G antibody (1:1000 dilution, Santa Cruz Biotechnology, CA, USA). The relative density of membrane to cytosolic RhoA was determined using NIH imaging software. […]

PASMCs [4] = test: 5-HT-induced PASMCs migration, wound assay model; assay type: cell-based, rat; details: 10-100 μM; 5-HT 10 μM 24 h
Description: The wound edge was viewed and photographed under a microscope (Nikon, Tokyo, Japan) before and after culture for 24 h in serum-free DMEM in the presence of 5HT (10 μM). The distance the cells migrated from the wound surface was then manually measured.

PASMCs [5] = test: 5-HT-induced PASMCs proliferation, MTT assay; assay type: cell-based, rat; details: KMUP-1 1-100 μM; 5-HT 10 μM 24 h
Description: as §1
PASMCs were seeded into 96-well plates at a density of 1×10^4 cells/well. […] At the end of this period, MTT (2 g/L) was added to each well, and incubation proceeded at 37° C. for 4 h. Thereafter, the medium was removed and the cells were solubilized in 150 μL DMSO. The optical density (OD) of each well was determined by enzyme-linked ELISA at 540 nm of wavelength.

5-HT2B receptor = molecular target: T1, 5-HT2B receptor (Homo sapiens, UniProt P41595); test: Displacement of [3H]-LSD radioligand binding; details: from Table 1
T1 construct: full length clones of 5-HT2A, 5-HT2B and 5-HT2C receptor were prepared from CHO-K1 cells; expressed in transfected cells; host or cells: CHO-K1
Description: As described previously (Bonhaus et al., 1995), full length clones of 5-HT2A, 5-HT2B and 5-HT2C receptor were prepared from CHO-K1 cells. […] IC50 represents the concentration of competing ligand which displaces 50% of the specific binding of the radioligand. Ki values for competition curves were calculated using the Cheng-Prusoff equation (Cheng, 2001).

[6] = pre-incubation 1-100 μM for 24 h

T1 sequence (P41595 whole entry): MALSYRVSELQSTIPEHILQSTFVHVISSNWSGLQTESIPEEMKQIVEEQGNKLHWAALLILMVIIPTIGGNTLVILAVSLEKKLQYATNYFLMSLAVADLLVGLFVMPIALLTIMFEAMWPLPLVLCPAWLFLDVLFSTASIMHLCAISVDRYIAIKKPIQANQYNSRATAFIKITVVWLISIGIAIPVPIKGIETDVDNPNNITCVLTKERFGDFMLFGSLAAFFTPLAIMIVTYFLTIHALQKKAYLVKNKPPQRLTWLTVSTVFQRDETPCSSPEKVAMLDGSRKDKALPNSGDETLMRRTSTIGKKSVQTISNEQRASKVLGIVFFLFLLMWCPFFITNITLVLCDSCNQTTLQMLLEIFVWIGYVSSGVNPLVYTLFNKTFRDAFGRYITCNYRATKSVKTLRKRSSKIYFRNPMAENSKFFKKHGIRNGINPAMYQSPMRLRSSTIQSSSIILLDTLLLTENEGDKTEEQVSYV

NCCc1c[nH]c2ccc(O)cc12 [5-HT, 5-hydroxytryptamine]
increase of phosphorylation of ERK1/2 (ERK1/2; 5-HT 10 μM for 15 min): 2.3 fold | increase of phosphorylation of AKT (AKT; 5-HT 10 μM for 15 min): 2.3 fold | expression of eNOS compared to the control group (eNOS; 5-HT 10 μM for 30 min): increased | release of NO compared to the control group [1]: increased

Cn1c(=O)c2c(ncn2CCN2CCN(c3ccccc3Cl)CC2)n(C)c1=O [KMUP-1 HCl]
mean pulmonary arterial pressure (MPAP), Table 2 [2]: 35.8 ± 3.2

Cn1c(=O)c2c(ncn2CCN2CCN(c3ccccc3Cl)CC2)n(C)c1=O [KMUP-1, 7-[2-[4-(2-chlorophenyl)piperazinyl]ethyl]-1,3-dimethyl-xanthine]
contractile response of pulmonary artery to 5-HT (10 μM) (rat pulmonary artery; 0.1-100 μM): inhibited | maximum response of pulmonary artery to 5-HT in the presence of L-NAME (rat pulmonary artery; KMUP-1 10-100 μM, L-NAME 100): reduced the maximum response | inhibition of the sustained [Ca2+]i response to 5-HT [3]: 65% | 5-HTT expression in pulmonary artery, immunochemistry (5-HTT; 21 days after MCT injection, 5 mg/kg p.o. and 1 mg/kg i.p.): significantly decreased | 5-HTT protein expression in lung tissue, Western blotting (5-HTT; MCT-treated rats): significantly reduced | 5-HT stimulated RhoA translocation (RhoA): inhibited | 5-HT-induced phosphorylation of ERK1/2 (ERK1/2; [6]): dose-dependently inhibited | 5-HT-induced phosphorylation of AKT (AKT; [6]): dose-dependently inhibited | 5-HT induced PASMCs migration (PASMCs [4]): inhibited | PASMCs proliferation (PASMCs [5]): dose-dependently inhibited | affinity order of the sub-receptors (5-HT2B receptor): 5-HT2A>5-HT2B>5-HT2C | ligand specificity of the human 5-HT2B receptor versus 5-HT2A and 5-HT2C receptors (5-HT2B receptor): more selective | eNOS expression (eNOS; 1-100 μM for 24 h): dose-dependently increased

COC(=O)[C@@H](N)CCCNC(=N)N[N+](=O)[O-] [L-NAME, N^ω-nitro-L-arginine methyl ester, reference compound]
5-HT-induced constriction (rat pulmonary artery; L-NAME alone with 5-HT): enhanced
